EC50 data for 20 compounds are collected here from patent publication US8563714B2, “Bridged spiro [2.4] heptane derivatives as ALX receptor and/or FPRL2 agonists” (Actelion Pharmaceuticals Ltd., priority 2009, dated 2013).

The EC50 is the concentration giving half of the maximal effect.

The target in test [1] is T1, human ALX receptor (Homo sapiens, UniProt P25090).
T1 construct: expressed in transfected cells; host or cells: HEK293 (HEK293-hALXR-Gα16)
T1 sequence (P25090 1-351): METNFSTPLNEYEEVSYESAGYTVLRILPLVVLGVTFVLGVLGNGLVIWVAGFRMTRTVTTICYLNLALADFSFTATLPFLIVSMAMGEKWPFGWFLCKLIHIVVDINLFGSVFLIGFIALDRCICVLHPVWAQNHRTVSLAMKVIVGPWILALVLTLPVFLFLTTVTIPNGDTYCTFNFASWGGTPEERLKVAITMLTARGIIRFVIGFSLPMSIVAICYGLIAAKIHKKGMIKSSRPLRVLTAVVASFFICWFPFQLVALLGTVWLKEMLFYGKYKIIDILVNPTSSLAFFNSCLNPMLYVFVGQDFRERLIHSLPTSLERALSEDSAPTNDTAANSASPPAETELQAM
Description: Intracellular calcium measurements (FLIPR), agonistic activity in HEK293-hALXR-Gα16 cells. As to conditions: Fluo-4 calcium FLIPR, normalized to WKYMVm 10 nM. It is filed as cell-based. The method in brief: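 HEK293 cells expressing hALXR and Gα16 were loaded with 1 μM Fluo-4 AM and 20 mM HEPES for 60 min at 37°C, then exposed to serially diluted compound. FLIPR fluorescence was read at ex 488/em 540 nm. Baseline-subtracted peak responses were normalized to 10 nM WKYMVm.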
On the technique in general: A change in cytosolic calcium serves as a functional read-out for many receptors and channels.

The target of test [2] is T2, human FPRL2 (Homo sapiens, UniProt P25089).
T2 construct: expressed in transfected cells; host or cells: HEK293 (HEK293-hFPRL2-Gα16)
T2 sequence (P25089 1-353): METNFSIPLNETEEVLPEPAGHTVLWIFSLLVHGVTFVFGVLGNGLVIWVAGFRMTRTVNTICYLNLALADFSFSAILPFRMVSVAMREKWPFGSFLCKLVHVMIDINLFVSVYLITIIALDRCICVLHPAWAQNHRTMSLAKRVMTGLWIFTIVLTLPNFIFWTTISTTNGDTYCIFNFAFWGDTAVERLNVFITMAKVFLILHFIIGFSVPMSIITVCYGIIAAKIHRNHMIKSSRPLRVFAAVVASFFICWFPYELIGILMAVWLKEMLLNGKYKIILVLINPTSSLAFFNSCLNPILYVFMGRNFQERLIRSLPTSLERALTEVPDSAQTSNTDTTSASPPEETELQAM
The test is described as follows: Intracellular calcium measurements (FLIPR), agonistic activity in HEK293-hFPRL2-Gα16 cells. The class given is cell-based. As to conditions: Fluo-4 calcium FLIPR, normalized to GLY14-Humanin 100 nM. The method in brief:
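Peak values after baseline subtraction are expressed relative to 100 nM Gly14-Humanin; compounds diluted in assay buffer from 10 mM DMSO stocks.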

Consider `CN1CCN(CCCNC(=O)[C@H]2[C@H](C(=O)NCc3ccc(Br)cc3)[C@@H]3C=C[C@H]2C32CC2)CC1` (racemic) [Example 273, (5R*)—N^5-(4-Bromophenyl-methyl)-(6R*)—N^6-(3-(4-methylpiperazin-1-yl)-propyl)-(4S*,7R*)-[4,7-ethenylene-spiro[2.4]heptane]-5,6-dicarboxamide], for which the values for the EC50 in test [1] and in test [2] were 213 nM and 432 nM, respectively.
Turning to `CN(C)CCNC(=O)[C@H]1[C@H](C(=O)NCc2ccc(Br)cc2)[C@@H]2C=C[C@H]1C21CC1` (racemic) [Example 274, (5R*)—N^5-(4-Bromophenyl-methyl)-(6R*)—N^6-(2-dimethylamino-ethyl)-(4S*,7R*)-[4,7-ethenylene-spiro[2.4]heptane]-5,6-dicarboxamide], the concentration giving a half-maximal response (EC50) came out at 290 nM in test [1] and 1170 nM in test [2].
For the compound `O=C(NCCN1CCNC1=O)[C@H]1[C@H](C(=O)NCc2ccc(Br)cc2)[C@@H]2C=C[C@H]1C21CC1` (racemic) [Example 275, (5R*)—N^5-(4-Bromophenyl-methyl)-(6R*)—N^6-((2-imidazolidin-2-on)-1-yl-ethyl)-(4S*,7R*)-[4,7-ethenylene-spiro[2.4]heptane]-5,6-dicarboxamide], the EC50 worked out at 181 nM in test [1] and 7040 nM in test [2].
As to `COCCNC(=O)[C@H]1[C@H](C(=O)Nc2ncc(Br)s2)[C@@H]2C=C[C@H]1C21CC1` (racemic) [Example 276, (5R*)—N^5-(5-Bromothiazol-2-yl)-(6R*)—N^6-(2-methoxy-ethyl)-(4S*,7R*)-[4,7-ethenylene-spiro[2.4]heptane]-5,6-dicarboxamide], the 50% effective concentration (EC50) in test [1] is 44 nM; in test [2] it was over 25000 nM.
For `CN(C)CCCNC(=O)[C@H]1[C@H](C(=O)Nc2ncc(Br)s2)[C@@H]2C=C[C@H]1C21CC1` (racemic) [Example 277, (5R*)—N^5-(5-Bromothiazol-2-yl)-(6R*)—N^6-(3-dimethylamino-propyl)-(4S*,7R*)-[4,7-ethenylene-spiro[2.4]heptane]-5,6-dicarboxamide] the same measures were 61 nM and 2010 nM.
For the compound `CC(=O)c1csc(CNC(=O)[C@H]2[C@H](C(=O)NCCCN)[C@H]3C=C[C@@H]2C32CC2)n1` (racemic) [Example 299, (5R*)—N^5-(4-Acetyl-thiazol-2-yl-methyl)-(6R*)—N^6-(3-amino-propyl)-(4S*,7R*)-[4,7-ethenylene-spiro[2.4]heptane]-5,6-dicarboxamide], the values for the concentration giving a half-maximal response (EC50) in test [1] and in test [2] were 273 nM and 359 nM, respectively.
Take `CC(=O)c1csc(CNC(=O)[C@H]2[C@H](C(=O)NCC3CCNCC3)[C@H]3C=C[C@@H]2C32CC2)n1` (racemic) [Example 300, (5R*)—N^5-(4-Acetyl-thiazol-2-yl-methyl)-(6R*)—N^6-(piperidin-4-yl-methyl)-(4S*,7R*)-[4,7-ethenylene-spiro[2.4]heptane]-5,6-dicarboxamide]: the EC50 is 384 nM in test [1] and 1820 nM in test [2].
The like results for `CNCCNC(=O)[C@H]1[C@H](C(=O)Nc2ncc(Br)s2)[C@@H]2C=C[C@H]1C21CC1` (racemic) [Example 301, (5R*)—N^5-(5-Bromo-thiazol-2-yl)-(6R*)—N^6-(2-methylamino-ethyl)-(4S*,7R*)-[4,7-ethenylene-spiro[2.4]heptane]-5,6-dicarboxamide] were, in that order, 98 nM and 2700 nM.
The like results for `NCCCCCNC(=O)[C@H]1[C@H](C(=O)Nc2ncc(Br)s2)[C@@H]2C=C[C@H]1C21CC1` (racemic) [Example 302, (5R*)—N^5-(5-Bromo-thiazol-2-yl)-(6R*)—N^6-(5-amino-pentyl)-(4S*,7R*)-[4,7-ethenylene-spiro[2.4]heptane]-5,6-dicarboxamide] were, in that order, 1.3 nM and 543 nM.
For `NCc1ccc(CNC(=O)[C@H]2[C@H](C(=O)Nc3ncc(Br)s3)[C@@H]3C=C[C@H]2C32CC2)cc1` (racemic) [Example 303, (5R*)—N^5-(5-Bromo-thiazol-2-yl)-(6R*)—N^6-(4-(aminomethyl)phenyl-methyl)-(4S*,7R*)-[4,7-ethenylene-spiro[2.4]heptane]-5,6-dicarboxamide] the same measures were 45 nM and 1340 nM.
As for `CC(C)(CN)CNC(=O)[C@H]1[C@H](C(=O)Nc2ncc(Br)s2)[C@@H]2C=C[C@H]1C21CC1` (racemic) [Example 304, (5R*)—N^5-(5-Bromo-thiazol-2-yl)-(6R*)—N^6-(2,2-dimethyl-3-amino-propyl)-(4S*,7R*)-[4,7-ethenylene-spiro[2.4]heptane]-5,6-dicarboxamide], the EC50 in test [1] came out at 12 nM; in test [2], 1630 nM.
With `CNCCNC(=O)[C@H]1[C@H](C(=O)NCc2ccc(Br)cc2)[C@@H]2C=C[C@H]1C21CC1` (racemic) [Example 305, (5R*)—N^5-(4-Bromophenyl-methyl)-(6R*)—N^6-(2-methylamino-ethyl)-(4S*,7R*)-[4,7-ethenylene-spiro[2.4]heptane]-5,6-dicarboxamide], the EC50 in test [1] came out at 350 nM; in test [2] it was 2050 nM.
In the case of `O=C(NC1CCNCC1)[C@H]1[C@H](C(=O)NCc2ccc(Br)cc2)[C@@H]2C=C[C@H]1C21CC1` (racemic) [Example 306, (5R*)—N^5-(4-Bromophenyl-methyl)-(6R*)—N^6-(piperidin-4-yl)-(4S*,7R*)-[4,7-ethenylene-spiro[2.4]heptane]-5,6-dicarboxamide], the EC50 in test [1] stood at 23 nM; in test [2], 2760 nM.
For `NCCCNC(=O)[C@H]1[C@H](C(=O)NCc2ccc(Br)cc2)[C@@H]2C=C[C@H]1C21CC1` (racemic) [Example 307, (5R*)—N^5-(4-Bromophenyl-methyl)-(6R*)—N^6-(3-amino-propyl)-(4S*,7R*)-[4,7-ethenylene-spiro[2.4]heptane]-5,6-dicarboxamide] the same measures were 76 nM and 2640 nM.
`NCc1cccc(CNC(=O)[C@H]2[C@H](C(=O)NCc3ccc(Br)cc3)[C@@H]3C=C[C@H]2C32CC2)c1` (racemic) [Example 308, (5R*)—N^5-(4-Bromophenyl-methyl)-(6R*)—N^6-(3-(aminomethyl)phenyl-methyl)-(4S*,7R*)-[4,7-ethenylene-spiro[2.4]heptane]-5,6-dicarboxamide]: the EC50 in test [1] amounted to 59 nM; in test [2], 493 nM.
For the compound `NCc1ccc(CNC(=O)[C@H]2[C@H](C(=O)NCc3ccc(Br)cc3)[C@@H]3C=C[C@H]2C32CC2)cc1` (racemic) [Example 309, (5R*)—N^5-(4-Bromophenyl-methyl)-(6R*)—N^6-(4-(aminomethyl)phenyl-methyl)-(4S*,7R*)-[4,7-ethenylene-spiro[2.4]heptane]-5,6-dicarboxamide], the 50% effective concentration (EC50) in test [1] amounted to 367 nM; in test [2], 1340 nM.
Turning to `CC(C)(CN)CNC(=O)[C@H]1[C@H](C(=O)NCc2ccc(Br)cc2)[C@@H]2C=C[C@H]1C21CC1` (racemic) [Example 310, (5R*)—N^5-(4-Bromophenyl-methyl)-(6R*)—N^6-(2,2-dimethyl-3-amino-propyl)-(4S*,7R*)-[4,7-ethenylene-spiro[2.4]heptane]-5,6-dicarboxamide], the EC50 in test [1] was determined as 26 nM; in test [2], 466 nM.
As to `O=C(NCC1CCNCC1)[C@H]1[C@H](C(=O)NCc2ccc(Br)cc2)[C@@H]2C=C[C@H]1C21CC1` (racemic) [Example 311, (5R*)—N^5-(4-Bromophenyl-methyl)-(6R*)—N^6-(piperidin-4-yl-methyl)-(4S*,7R*)-[4,7-ethenylene-spiro[2.4]heptane]-5,6-dicarboxamide], the values for the EC50 in test [1] and in test [2] were 54 nM and 1170 nM, respectively.
For `O=C(NCCCCN1CCCC1)[C@H]1[C@H](C(=O)NCCC2=CCCCC2)[C@@H]2C=C[C@H]1C21CC1` (racemic) [Example 341, (5R*)—N^5-(2-(Cyclohexen-1-yl)ethyl)-(6R*)—N^6-(4-pyrrolidino-butyl)-(4S*,7R*)-[4,7-ethenylene-spiro[2.4]heptane]-5,6-dicarboxamide], the figures for the concentration for a half-maximal effect (EC50) in test [1] and in test [2] were 1740 nM and 165 nM, respectively.
With `O=C(NCCCCN1CCCC1)[C@H]1[C@H](C(=O)NCCc2ccccn2)[C@@H]2C=C[C@H]1C21CC1` (racemic) [Example 343, (5R*)—N^5-(2-(Pyridin-2-yl)ethyl)-(6R*)—N^6-(4-pyrrolidino-butyl)-(4S*,7R*)-[4,7-ethenylene-spiro[2.4]heptane]-5,6-dicarboxamide], the results for the EC50 in test [1] and in test [2] were over 2390 nM and 885 nM, respectively.
